{"source": "patent US6911416B2", "about": "“Substituted N-benzoyl-n′(tetrazolylphenyl)-ureas and their use as pest control agents” (priority 2000, dated 2005)", "data": [{"system": "fall armyworm (Spodoptera frugiperda) caterpillars", "experiment": "Spodoptera frugiperda test (dipped cabbage leaves)", "assay_type": "in vivo", "conditions": "active compound concentration 0.1%, after 7 days, cabbage leaves (Brassica oleracea)", "description": "Spodoptera frugiperda Test\n(§1) To produce a suitable active compound preparation, 1 part by weight of active compound is mixed with the stated amounts of solvent and emulsifier, and the concentrate is diluted with emulsifier-containing water to the desired concentration.\nCabbage leaves (Brassica oleracea) are treated by dipping into the active compound preparation of the desired concentration and are populated with fall armyworm (Spodoptera frugiperda) caterpillars while the leaves are still moist.\n(§2) After the desired period, the destruction is determined in %. 100% means that all the caterpillars have been killed; 0% means that none of the caterpillars have been killed.", "units": {"destruction": "%"}, "values": [{"compound": "CCCn1nnc(-c2ccc(NC(=O)NC(=O)c3c(F)cccc3F)c(Cl)c2)n1", "note": "[Example 15]", "destruction": 100}, {"compound": "CC(C)(C)n1nnc(-c2ccc(NC(=O)NC(=O)c3c(F)cccc3F)c(Cl)c2)n1", "note": "[Example 4]", "destruction": 100}, {"compound": "O=C(NC(=O)c1c(F)cccc1F)Nc1ccc(-c2nnnn2C(F)F)cc1Cl", "note": "[Example 20]", "destruction": 100}, {"compound": "CC(C)(C)n1nnc(-c2ccc(NC(=O)NC(=O)c3c(F)cccc3Cl)c(Cl)c2)n1", "note": "[Example 10]", "destruction": 100}, {"compound": "CCOCn1nnc(-c2ccc(NC(=O)NC(=O)c3c(F)cccc3F)c(Cl)c2)n1", "note": "[Example 14]", "destruction": 100}, {"compound": "Cn1nnc(-c2ccc(NC(=O)NC(=O)c3c(F)cccc3F)c(Cl)c2)n1", "note": "[Example 5]", "destruction": 100}, {"compound": "O=C(NC(=O)c1c(F)cccc1F)Nc1ccc(-c2nnn(C(F)F)n2)cc1Cl", "note": "[Example 18]", "destruction": 100}, {"compound": "CC(C)(C)n1nnc(-c2cc(Cl)c(NC(=O)NC(=O)c3c(F)cccc3F)cc2Cl)n1", "note": "[Example 16]", "destruction": 100}]}, {"system": "not listed separately", "experiment": "logP (pH2) determination by HPLC, EEC directive 79/831 Annex V. A8", "assay_type": "physicochemical", "conditions": "pH 2", "values": [{"compound": "O=C(NC(=O)c1c(F)cccc1F)Nc1ccc(-c2nnn(-c3ccccc3)n2)cc1Cl", "note": "[Example 19]", "logP (pH2) or m.p. (° C.)": 4.63}, {"compound": "N-(2,6-difluorobenzoyl)-N′-[2-chloro-4-(1-methyl-tetrazol-5-yl]-urea [Example 3]", "log P(pH2)": 2.31}]}, {"system": "not listed separately", "experiment": "logP (pH2) determination by HPLC, EEC directive 79/831 Annex V. A8", "assay_type": "physicochemical", "conditions": "pH2; Table 1, compounds of formula (I); only decimal values are logP", "values": [{"compound": "O=C(NC(=O)c1c(F)cccc1F)Nc1cc(Cl)c(-c2nn[nH]n2)cc1Cl", "note": "[Example 7]", "logP (pH2)": 2.30}, {"compound": "CC(C)(C)n1nnc(-c2cc(Cl)ccc2NC(=O)NC(=O)c2c(F)cccc2F)n1", "note": "[Example 11]", "logP (pH2)": 4.20}, {"compound": "O=C(NC(=O)c1c(F)cccc1F)Nc1ccc(Cl)cc1-c1nn[nH]n1", "note": "[Example 6]", "logP (pH2)": 2.16}, {"compound": "CC(C)(C)n1nnc(-c2ccc(NC(=O)NC(=O)c3c(F)cccc3F)cc2Cl)n1", "note": "[Example 35]", "logP (pH2)": 3.68}, {"compound": "Cn1nnc(-c2ccc(NC(=O)NC(=O)c3c(F)cccc3F)c(Cl)c2)n1", "note": "[Example 5]", "logP (pH2)": 2.88}]}, {"system": "not listed separately", "experiment": "logP (pH2) determination by HPLC, EEC directive 79/831 Annex V. A8", "assay_type": "physicochemical", "conditions": "pH2; Table 2, tetrazolylanilines of formula (III)", "values": [{"compound": "CC(C)(C)n1nnc(-c2ccc(N)cc2)n1", "note": "[III-23]", "logP (pH2)": 1.69}, {"compound": "Nc1ccc(Cl)cc1-c1nn[nH]n1", "note": "[III-7]", "logP (pH2)": 1.50}, {"compound": "CC(C)(C)n1nnc(-c2ccc(N)cc2Cl)n1", "note": "[III-31]", "logP (pH2)": 2.42}, {"compound": "CCCn1nnc(-c2ccc(N)c(Cl)c2)n1", "note": "[III-12]", "logP (pH2)": 2.52}, {"compound": "Nc1ccc(-c2nnnn2C(F)F)cc1", "note": "[III-47]", "logP (pH2)": 1.24}, {"compound": "Cc1cc(-c2nn[nH]n2)cc(Cl)c1N", "note": "[III-5]", "logP (pH2)": 1.20}, {"compound": "Nc1ccc(-c2nnn(-c3ccccc3)n2)cc1Cl", "note": "[III-15]", "logP (pH2)": 3.28}, {"compound": "CC(C)Cn1nnc(-c2cc(Cl)c(N)cc2Cl)n1", "note": "[III-21]", "logP (pH2)": 3.15}, {"compound": "CC(C)(C)n1nnc(-c2ccc(N)cc2F)n1", "note": "[III-32]", "logP (pH2)": 2.14}, {"compound": "CCOCn1nnc(-c2ccc(N)c(Cl)c2)n1", "note": "[III-11]", "logP (pH2)": 2.34}, {"compound": "Nc1ccc(-c2nnn(C(F)F)n2)cc1Cl", "note": "[III-14]", "logP (pH2)": 2.08}, {"compound": "CCCn1nnc(-c2cc(Cl)c(N)cc2Cl)n1", "note": "[III-22]", "logP (pH2)": 2.75}, {"compound": "Nc1ccc(-c2nnnn2C(F)F)c(Cl)c1", "note": "[III-49]", "logP (pH2)": 1.81}, {"compound": "COC(=O)Cn1nnc(-c2ccc(N)c(Cl)c2)n1", "note": "[III-10]", "logP (pH2)": 1.92}, {"compound": "Nc1c(Cl)cc(-c2nn[nH]n2)cc1Cl", "note": "[III-25]", "logP (pH2)": 1.40}, {"compound": "Nc1ccc(-c2nnn(CCC(F)=C(F)F)n2)cc1Cl", "note": "[III-18]", "logP (pH2)": 2.68}, {"compound": "CC(C)(C)n1nnc(-c2ccc(N)c(Cl)c2)n1", "note": "[III-26]", "logP (pH2)": 2.94}, {"compound": "Nc1cc(Cl)c(-c2nnnn2C(F)F)cc1Cl", "note": "[III-29]", "logP (pH2)": 2.36}, {"compound": "Nc1cc(Cl)c(-c2nnn(C(F)F)n2)cc1Cl", "note": "[III-28]", "logP (pH2)": 2.69}, {"compound": "Nc1ccc(-c2nnn(C(F)F)n2)c(F)c1", "note": "[III-50]", "logP (pH2)": 1.84}, {"compound": "Cn1nnc(-c2ccc(N)c(Cl)c2)n1", "note": "[III-6]", "logP (pH2)": 1.70}, {"compound": "Nc1ccc(-c2nnn(C(F)F)n2)c(Cl)c1", "note": "[III-48]", "logP (pH2)": 2.09}, {"compound": "Nc1ccc(-c2nnnn2C(F)F)cc1Cl", "note": "[III-16]", "logP (pH2)": 1.92}, {"compound": "CC(C)Cn1nnc(-c2cc(Cl)c(N)c(Cl)c2)n1", "note": "[III-20]", "logP (pH2)": 3.78}, {"compound": "CC(C)Cn1nnc(-c2ccc(N)c(Cl)c2)n1", "note": "[III-17]", "logP (pH2)": 2.95}, {"compound": "CC(C)(C)n1nnc(-c2cc(Cl)c(N)c(Cl)c2)n1", "note": "[III-19]", "logP (pH2)": 3.81}, {"compound": "Nc1cc(Cl)c(-c2nn[nH]n2)cc1Cl", "note": "[III-8]", "logP (pH2)": 1.16}, {"compound": "Nc1ccc(-c2nn[nH]n2)c(Cl)c1", "note": "[III-9]", "logP (pH2)": 1.53}, {"compound": "CC(=O)OCCn1nnc(-c2ccc(N)c(Cl)c2)n1", "note": "[III-24]", "logP (pH2)": 1.92}, {"compound": "Nc1ccc(-c2nnn(C(F)F)n2)cc1", "note": "[III-46]", "logP (pH2)": 1.49}]}, {"system": "not listed separately", "experiment": "logP (pH2) determination by HPLC, EEC directive 79/831 Annex V. A8", "assay_type": "physicochemical", "conditions": "pH 2; pH2; HPLC gradient acetonitrile/0.1% aqueous phosphoric acid; values in preparation examples; read-out: log P(pH2)", "values": [{"compound": "O=C(NC(=O)c1c(F)cccc1F)Nc1ccc(-c2nnn(C3CCCCO3)n2)cc1Cl", "note": "(centres unmarked) [Example 2, N-(2,6-difluorobenzoyl)-N′-[2-chloro-4-(2-tetrahydropyran-2-yl-tetrazol-5-yl)-phenyl]-urea]", "chromatographic logP": 3.72}, {"compound": "Nc1ccc(-c2nn[nH]n2)cc1Cl", "note": "[5-(3-chloro-4-aminophenyl)-tetrazole]", "chromatographic logP": 1}, {"compound": "O=C(NC(=O)c1c(F)cccc1F)Nc1ccc(-c2nn[nH]n2)cc1Cl", "note": "[Example 1, N-(2,6-difluorobenzoyl)-N′-(2-chloro-4-tetrazol-5-yl-phenyl)-urea]", "chromatographic logP": 2.13}, {"compound": "Cn1nnnc1-c1ccc(N)c(Cl)c1", "note": "[1-methyl-(3-chloro-4-aminophenyl)-tetrazole]", "chromatographic logP": 1.17}, {"compound": "Nc1ccc(-c2nnn(Cc3ccc(Br)cc3)n2)cc1Cl", "note": "[Example b, 5-(3-chloro-4-aminophenyl)-2-(4-bromobenzyl)-tetrazole]", "chromatographic logP": 3.52}, {"compound": "CC(C)(C)n1nnc(-c2cc(Cl)ccc2N)n1", "note": "[Example a, 5-(2-amino-5-chlorophenyl)-2-tert-butyl-tetrazole]", "chromatographic logP": 3.58}]}, {"system": "fall armyworm (Spodoptera exigua) caterpillars", "experiment": "Spodoptera exigua test (dipped cabbage leaves)", "assay_type": "in vivo", "conditions": "active compound concentration 0.1%, after 6 days, cabbage leaves (Brassica oleracea)", "description": "as §1\nCabbage leaves (Brassica oleracea) are treated by dipping into the active compound preparation of the desired concentration and are populated with fall armyworm (Spodoptera exigua) caterpillars while the leaves are still moist.\nas §2", "units": {"destruction": "%"}, "values": [{"compound": "CC(C)(C)n1nnc(-c2ccc(NC(=O)NC(=O)c3c(F)cccc3F)c(Cl)c2)n1", "note": "[Example 4]", "destruction": 100}]}, {"system": "Heliothis virescens", "experiment": "Heliothis virescens test (dipped soya shoots)", "assay_type": "in vivo", "conditions": "active compound concentration 0.1%, after 6 days, soya shoots (Glycine max)", "description": "as §1\nSoya shoots (Glycine max) are treated by dipping into the active compound preparation of the desired concentration and are populated with Heliothis virescens while the leaves are still moist.\nas §2", "units": {"destruction": "%"}, "values": [{"compound": "CC(C)(C)n1nnc(-c2ccc(NC(=O)NC(=O)c3c(F)cccc3F)c(Cl)c2)n1", "note": "[Example 4]", "destruction": 100}]}, {"system": "mustard beetle (Phaedon cochleariae) larvae", "experiment": "Phaedon larvae test (dipped cabbage leaves)", "assay_type": "in vivo", "conditions": "active compound concentration 0.1%, after 7 days, cabbage leaves (Brassica oleracea)", "description": "as §1\nCabbage leaves (Brassica oleracea) are treated by dipping into the active compound preparation of the desired concentration and are populated with mustard beetle (Phaedon cochleariae) larvae while the leaves are still moist.\nAfter the desired period, the destruction is determined in %. 100% means that all the beetle have been killed; 0% means that none of the beetle larvae have been killed.", "units": {"destruction": "%"}, "values": [{"compound": "CC(C)(C)n1nnc(-c2ccc(NC(=O)NC(=O)c3c(F)cccc3F)c(Cl)c2)n1", "note": "[Example 4]", "destruction": 100}, {"compound": "O=C(NC(=O)c1c(F)cccc1F)Nc1ccc(-c2nnnn2C(F)F)cc1Cl", "note": "[Example 20]", "destruction": 100}, {"compound": "CC(C)(C)n1nnc(-c2ccc(NC(=O)NC(=O)c3c(F)cccc3Cl)c(Cl)c2)n1", "note": "[Example 10]", "destruction": 100}, {"compound": "O=C(NC(=O)c1c(F)cccc1F)Nc1ccc(-c2nnn(C(F)F)n2)cc1Cl", "note": "[Example 18]", "destruction": 100}, {"compound": "CC(C)(C)n1nnc(-c2cc(Cl)c(NC(=O)NC(=O)c3c(F)cccc3F)cc2Cl)n1", "note": "[Example 16]", "destruction": 100}]}, {"system": "diamond-back moth (Plutella xylostella) caterpillars", "experiment": "Plutella test (dipped cabbage leaves)", "assay_type": "in vivo", "conditions": "active compound concentration 0.1%, after 6 days, cabbage leaves (Brassica oleracea)", "description": "as §1\nCabbage leaves (Brassica oleracea) are treated by dipping into the active compound preparation of the desired concentration and are populated with diamond-back moth (Plutella xylostella) caterpillars while the leaves are still moist.\nas §2", "units": {"destruction": "%"}, "values": [{"compound": "CC(C)(C)n1nnc(-c2ccc(NC(=O)NC(=O)c3c(F)cccc3F)c(Cl)c2)n1", "note": "[Example 4]", "destruction": 100}]}]}
